# Laboratory results as given in patent publication US20090209517A1, “Use of 5H-dibenz/b,f/azepine-5-carboxamide derivatives in the treatment of neuropathic pain and neurological disorders” (priority 2006, published 2009).
# Like-named read-outs stand apart in the source and are kept apart here.
# Experiments:
# [1] = humans; subject-dependent; cited from earlier work
# [2] = tested on: voltage-sensitive sodium channels; experiment: [3H]BTX displacement binding to whole brain membranes; settings: FIG. 3; for Degree of interaction with site 2 in voltage-gated sodium channels, relative to oxcarbazepine: [3H]-BTX displacement
# Experimental: Blockade of voltage-sensitive sodium channels was studied by investigating [3H]batrachotoxinin A […] ([3H]BTX) displacement binding to whole brain membranes. Animals were decapitated and their brains quickly removed. Membrane preparation and binding assays were performed essentially as previously described (Shimidzu et al., 1997). Brains (without cerebellum) were homogenised in 10 vol 0.32 M sucrose, 1 mM EDTA, 1 mg/ml bovine serum albumin (BSA), 5 mM HEPES/TRIS pH 7.4 with a Teflon homogeniser (8 strokes at 400 r.p.m). After a 10 min centrifugation at 1,000 g the supernatants were centrifuged for 20 min at 39,000 g and pellets were homogenised with 20 vol or 40 vol Na+-free buffer, respectively for [3H]-batrachotoxinin A 20-alpha-benzoate ([3H]-BTX) binding assays. Na+-free buffer had the following composition (in mM): 130 choline chloride, 0.8 MgSO4, 5.4 KCl, 5.5 D-glucose, 50 HEPES/TRIS, pH 7.4. The homogenate was centrifuged for 20 min at 39,000 g and the resultant pellets were resuspended in Na+-free buffer. Protein concentration in membrane preparations was determined with BioRad Protein Assay (BioRad) using a standard curve of BSA (50-250 μg/ml). In [3H]-BTX binding assay experiments membrane preparations (200 μg protein) were incubated for 1 h at 37° C. with 10 nM (inhibition experiments) or 1-200 nM (saturation experiments) [3H]-BTX in Na+-free buffer containing 2 μM scorpion toxin, 1 μM tetrodotoxin and 1 mg/ml BSA in 96-well EIA/RIA plates (COSTAR). In inhibition experiments the reaction buffer contained also 3-1000 μM of test drugs. Nonspecific binding was determined in the presence of 300 μM veratridine. Nonspecific binding was 26±2% of total binding at 10 nM [3H-BTX]. After incubation the reaction was terminated by vacuum filtration (Brandel 96 harvester) through glassfiber filtermats (Wallac). […] Filtermats were dried, impregnated with MeltiLex A scintillation mixture (Wallac), inserted into plastic sample bags (Wallac) and radioactivity determined in a Microbeta 1224-510 counter (Wallac).
# [3] = Rotarod test (motor impairment); type: in vivo, mice; settings: male, mouse, in vivo, ip; intraperitoneally, 15 min after administration, 15 r.p.m.
# Experimental: (§1) A normal mouse can maintain its equilibrium for long periods in the rotating rod. Mice were examined for motor toxicity in the rotating rod apparatus (Accelerator Rota-Rod [Jones & Roberts] 7650; Ugo Basile). The motor performance of naive mice (male Charles River, weighing 30 to 35 g) was evaluated 15 min after the administration of the compounds to be tested. Animals were placed on the rotating rod at a speed of 15 r.p.m. In a drug-treated mouse the neurological deficit is indicated by the inability of the animal to maintain equilibrium for 1 min in each of three trials. ESL, CBZ, OXC and R-Lic were dissolved in dimethyl sulfoxide (DMSO) (2 ml/kg) and given intraperitoneally (see ROGAWSKI, M. A., […], S., JONES, S. M., RICE, K. C., […], A. & MONN, J. A. (1991). Anticonvulsant activity of the low-affinity uncompetitive N-methyl-D-aspartate antagonist (+−)-5-aminocarbonyl-10,11-dihydro-5H-dibenzo[a,d]cyclohepten-5,10-imine (ADCI): comparison with the structural analogs dizocilpine (MK-801) and carbamazepine. J Pharmacol Exp Ther, 259, 30-37).
# Mice (NMRI) [4] = settings: mouse, in vivo
# Mice (NMRI) [5] = experiment: Formalin paw test (licking time); type: in vivo; settings: for Formalin paw test licking time (s) at 100 mg/kg: 100 mg/kg p.o., 60 min before test, vehicle-treated mice 81.0±13.8 s; for Effect on licking in the formalin test at 300 mg/kg: 300 mg/kg p.o.; for ED50: Mus musculus, po, doses 10-300 mg/kg, FIG. 1, read-out: ED50 for reduction of licking time in the formalin paw test
# Experimental: The method, which detects analgesic/anti-inflammatory activity, follows that described by Wheeler-Aceto et al (see WHEELER-ACETO, H. & A., C. (1991), “Standardization of the rat paw formalin test for the evaluation of analgesics”, Psychopharmacology, 104, 35-44). Mice (NMRI) were given an intraplantar injection of 5% formalin (25 μl) into the posterior left paw. […] The time spent licking was counted for 15 minutes, beginning 15 minutes after injection of formalin. 10 mice were studied per group. The test was performed blind. ESL and CBZ were tested at the doses of 10, 30, 100 and 300 mg/kg p.o., and OXC and R-Lic were tested at the doses of 100 and 300 mg/kg p.o., administered 60 minutes before the test (i.e. 45 minutes before formalin), and compared with a vehicle control group in each experiment.
# [6] = tested on: naive mice (male Charles River); experiment: Rotarod test (motor impairment); type: in vivo; settings: intraperitoneally, 15 min after administration, 15 r.p.m.
# Experimental: as §1
# [7] = tested on: voltage-gated sodium channel (VGSC); settings: cited from earlier work
SMILES,Proportion in which the enantiomer is formed as metabolite of oxcarbazepine [1],"Degree of interaction with site 2 in voltage-gated sodium channels, relative to oxcarbazepine [2]",ED50 at 15 min [3] [mg/kg],Sedation (%) at 300 mg/kg (Mice (NMRI) [4]; NMRI) [%],Formalin paw test licking time (s) at 100 mg/kg (Mice (NMRI) [5]) [s],Sedation observed (mice sedated / mice given) (Mice (NMRI) [4]; NMRI),Effect on licking in the formalin test at 300 mg/kg (Mice (NMRI) [5]),ED50 (Mice (NMRI) [5]) [mg/kg],Rotarod test ED50 values [6] [mg/kg],Sedation (%) at 300 mg/kg (Mice (NMRI) [4]) [%],"Ability to displace [3H]-BTX from its binding site in whole brain membranes, compared with oxcarbazepine [2]",Affinity for the resting state of the channel relative to CBZ [7]
"NC(=O)N1c2ccccc2C[C@H](O)c2ccccc21 [S-Lic, S-licarbazepine]",approximately 80%,approximately 2.5 times less,,,,,,,,,,
"NC(=O)N1c2ccccc2CC(=O)c2ccccc21 [Oxc, oxcarbazepine, reference compound]",,,50.2,90,1,,,,,,,
"NC(=O)N1c2ccccc2C=Cc2ccccc21 [CBZ, carbamazepine, reference compound]",,,29.7,100,5.3,10/10,abolished licking,38.2,,,,
"NC(=O)N1c2ccccc2C[C@@H](O)c2ccccc21 [R-Lic, R-licarbazepine]",~20%,approximately 2.5 times less,,,36.7,,,,97.4,20,reduced ability to displaced,
"CC(=O)O[C@H]1Cc2ccccc2N(C(N)=O)c2ccccc21 [ESL, S-(−)-10-acetoxy-10,11-dihydro-5H-dibenz/b,f/azepine-5-carboxamide]",,,139,10,33.6,1/10,abolished licking,69.7,,,,about 3 fold lower
